From US7829589B2, “Sulfonamide compounds and uses thereof” (Elixir Pharmaceuticals, Inc., priority 2005, dated 2010) come the findings set out here.

Molecules are shown by their SMILES.

GHS-R, sequence (Q92847 whole entry, species assumed): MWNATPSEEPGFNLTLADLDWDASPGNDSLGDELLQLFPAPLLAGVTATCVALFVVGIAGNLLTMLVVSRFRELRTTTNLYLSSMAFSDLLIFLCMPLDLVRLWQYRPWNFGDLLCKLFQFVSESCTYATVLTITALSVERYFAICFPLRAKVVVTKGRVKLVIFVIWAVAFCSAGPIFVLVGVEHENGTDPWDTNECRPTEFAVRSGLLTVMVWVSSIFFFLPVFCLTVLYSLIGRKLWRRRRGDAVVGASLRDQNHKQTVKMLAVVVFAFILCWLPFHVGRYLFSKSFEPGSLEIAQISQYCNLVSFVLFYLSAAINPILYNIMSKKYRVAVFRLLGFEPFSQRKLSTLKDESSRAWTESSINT

This test addresses GHS-R (Homo sapiens, UniProt Q92847). Put plainly: GHS-R antagonist activity (Ki) in a cell based assay. A digest of the protocol:
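Transfected COS-7 cells were labelled 24 h with [^3H]-myo-inositol and preincubated 30 min at 37 °C in HEPES buffer pH 7.4 with 10 mM LiCl, optionally with 1 U/ml adenosine deaminase. Compound was applied for 45 min at 37 °C. [^3H]-inositol phosphates were extracted with perchloric acid and isolated by anion-exchange resin.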
The Ki is a dissociation constant, usually derived from enzyme kinetics or from competition with a known ligand. High values mean weaker binding, low ones tighter binding. The compound `CCN(CC)CCCS(=O)(=O)N[C@H](COCc1ccccc1)c1nc(-c2c(Cl)cccc2Cl)no1` [Compound 2, 3-Diethylamino-propane-1-sulfonic acid {(R)-2-benzyloxy-1-[3-(2,6-dichloro-phenyl)-[1,2,4]oxadiazol-5-yl]-ethyl}-amide] came in with a Ki below 100 nM.

With `CCN(CC)CCCS(=O)(=O)NCc1nc(Cc2ccc(Br)cc2)no1` [Compound 151, 3-Diethylamino-propane-1-sulfonic acid [3-(4-bromo-benzyl)-[1,2,4]oxadiazol-5-ylmethyl]-amide], the Ki lay in the range of 100 to 500 nM.

`CCN(CC)CCS(=O)(=O)N[C@H](CCc1ccccc1)c1nc(-c2ccccn2)no1` [Compound 27, 2-Diethylamino-ethanesulfonic acid [(R)-3-phenyl-1-(3-pyridin-2-yl-[1,2,4]oxadiazol-5-yl)-propyl]-amide]: the inhibitory constant (Ki) is 100 to 500 nM. The same measure for `CCN(CC)CCCS(=O)(=O)N[C@H](CCc1ccccc1)c1nc(-c2ccc3[nH]ccc3c2)n[nH]1` [Compound 20, 3-Diethylamino-propane-1-sulfonic acid {(R)-1-[5-(1H-indol-5-yl)-2H-{1,2,4]triazol-3-yl]-3-phenyl-propyl}-amide]: below 100 nM; for `CCN(CC)CCCS(=O)(=O)N[C@H](CCc1ccccc1)c1nc(-c2cc(F)ccc2F)n[nH]1` [Compound 63, 3-Diethylamino-propane-1-sulfonic acid {(R)-1-[5-(2,5-difluoro-phenyl)-2H-[1,2,4]triazol-3-yl]-3-phenyl-propyl}-amide]: 100 to 500 nM; for `CCN(CC)CCCS(=O)(=O)N[C@H](CCc1ccccc1)c1nc(-c2ccccn2)no1` [Compound 39, 3-Diethylamino-propane-1-sulfonic acid [(R)-3-phenyl-1-(3-pyridin-2-yl-[1,2,4]oxadiazol-5-yl)-propyl]-amide]: 500 to 1000 nM. The same measure for `CCN(CC)CCS(=O)(=O)N[C@H](CCc1ccccc1)c1nc(-c2cccnc2Cl)no1` [Compound 54, 2-Diethylamino-ethanesulfonic acid {(R)-1-[3-(2-chloro-pyridin-3-yl)-[1,2,4]oxadiazol-5-yl]-3-phenyl-propyl}-amide]: 100 to 500 nM. `CCN(CC)CCCS(=O)(=O)N[C@H](CCc1ccccc1)c1nc(-c2ccc(OC)cc2)no1` [Compound 69, 3-Diethylamino-propane-1-sulfonic acid {(R)-1-[3-(4-methoxy-phenyl)-[1,2,4]oxadiazol-5-yl]-3-phenyl-propyl}-amide] came in with a Ki below 100 nM. The result for `CCN(CC)CCCS(=O)(=O)N[C@H](CCc1ccccc1)c1nc(Cc2c(Cl)cccc2Cl)no1` [Compound 73, 3-Diethylamino-propane-1-sulfonic acid {(R)-1-[3-(2,6-dichloro-benzyl)-[1,2,4]oxadiazol-5-yl]-3-phenyl-propyl}-amide] reads below 100 nM; that for `CCN(CC)CCCS(=O)(=O)N[C@H](CCc1ccccc1)c1nc(Cc2ccccc2Cl)no1` [Compound 114, 3-Diethylamino-propane-1-sulfonic acid {(R)-1-[3-(2-chloro-benzyl)-[1,2,4]oxadiazol-5-yl]-3-phenyl-propy}-amide], below 100 nM; that for `CCN(CC)CCCS(=O)(=O)N[C@H](CCc1ccccc1)c1nc(Cc2ccc(C(F)(F)F)cc2)no1` [Compound 117, 3-Diethylamino-propane-1-sulfonic acid {(R)-3-phenyl-1-[3-(4-trifluoromethyl-benzyl)-[1,2,4]oxadiazol-5-yl]-propyl}-amide], below 100 nM. Turning to `CCN(CC)CCCS(=O)(=O)N[C@H](CCc1ccccc1)c1nc(-c2ccccc2OC)no1` [Compound 16, 3-Diethylamino-propane-1-sulfonic acid {(R)-1-[3-(2-methoxy-phenyl)-[1,2,4]oxadiazol-5-yl]-3-phenyl-propyl}-amide], the Ki was 500 to 1000 nM. The result for `CCN(CC)CCCS(=O)(=O)N[C@H](CCc1ccccc1)c1nc(-c2ccc(F)cc2)n[nH]1` [Compound 105, 3-Diethylamino-propane-1-sulfonic acid {(R)-1-[5-(4-fluoro-phenyl)-2H-[1,2,4]triazol-3-yl]-3-phenyl-propyl}-amide] reads below 100 nM; that for `CCN(CC)CCCS(=O)(=O)N[C@H](CCc1ccccc1)c1nc(CCc2ccccc2Cl)no1` [Compound 101, 3-Diethylamino-propane-1-sulfonic acid ((R)-1-{3-[2-(2-chloro-phenyl)-ethyl]-[1,2,4]oxadiazol-5-yl}-3-phenyl-propyl)-amide], 100 to 500 nM.

Regarding `CCN(CC)CCS(=O)(=O)N[C@H](CCc1ccccc1)c1nc(Cc2ccccc2F)no1` [Compound 91, 2-Diethylamino-ethanesulfonic acid {(R)-1-[3-(2-fluoro-benzyl)-[1,2,4]oxadiazol-5-yl]-3-phenyl-propyl}-amide], the Ki lay within 100 to 500 nM. The result for `CCN(CC)CCS(=O)(=O)N[C@H](CCc1ccccc1)c1nc(Cc2cccc(F)c2)no1` [Compound 82, 2-Diethylamino-ethanesulfonic acid {(R)-1-[3-(3-fluoro-benzyl)-[1,2,4]oxadiazol-5-yl]-3-phenyl-propyl}-amide] reads below 100 nM. The result for `CCN(CC)CCS(=O)(=O)N[C@H](CCc1ccccc1)c1nc(-c2ccc(Br)cc2C)no1` [Compound 85, 2-Diethylamino-ethanesulfonic acid {(R)-1-[3-(4-bromo-2-methyl-phenyl)-[1,2,4]oxadiazol-5-yl]-3-phenyl-propyl}-amide] reads at least 1000 nM; that for `CCN(CC)CCCS(=O)(=O)N[C@@H](Cc1ccccc1)c1nc(-c2ccc(OC)cc2)n[nH]1` [Compound 95, 3-Diethylamino-propane-1-sulfonic acid {(S)-1-[5-(4-methoxy-phenyl)-2H-[1,2,4]triazol-3-yl]-2-phenyl-ethyl}-amide], below 100 nM. For `CCN(CC)CCCS(=O)(=O)N[C@@H](C)c1nc(-c2ccc(OC)cc2)no1` [Compound 150, (S)-3-Diethylamino-propane-1-sulfonic acid {1-[3-(4-methoxy-phenyl)-[1,2,4]oxadiazol-5-yl]-ethyl}-amide], the Ki was 100 to 500 nM. Compound `CCN(CC)CCCS(=O)(=O)N[C@H](CCc1ccccc1)c1nc(-c2ccc3sccc3c2)n[nH]1` [Compound 129, 3-Diethylamino-propane-1-sulfonic acid [(R)-1-(5-benzo[b]thiophen-5-yl-2H-[1,2,4]triazol-3-yl)-3-phenyl-propyl]-amide] had a Ki below 100 nM.

As to `CCN(CC)CCCS(=O)(=O)N[C@H](CCc1ccccc1)c1nc(-c2ccc(C)cc2)n[nH]1` [Compound 108, 3-Diethylamino-propane-1-sulfonic acid [(R)-3-phenyl-1-(5-p-tolyl-2H-[1,2,4]triazol-3-yl)-propyl]-amide], the Ki was 100 to 500 nM. The result for `CCN(CC)CCCS(=O)(=O)N[C@H](CCc1ccccc1)c1nc(-c2ccc3occc3c2)n[nH]1` [Compound 130, 3-Diethylamino-propane-1-sulfonic acid [(R)-1-(5-benzofuran-5-yl-2H-[1,2,4]triazol-3-yl)-3-phenyl-propyl]-amide] reads below 100 nM; that for `CCN(CC)CCCS(=O)(=O)N[C@H](COCc1ccccc1)c1nc(-c2ccccc2)n[nH]1` [Compound 25, 3-Diethylamino-propane-1-sulfonic acid [(S)-2-benzyloxy-1-(5-phenyl-2H-[1,2,4]triazol-3-yl)-ethyl]-amide], 100 to 500 nM.

`CCN(CC)CCCS(=O)(=O)N[C@H](CCc1ccccc1)c1nc(-c2ccccc2)n[nH]1` [Compound 23, 3-Diethylamino-propane-1-sulfonic acid [(R)-3-phenyl-1-(5-phenyl-2H-[1,2,4]triazol-3-yl)-propyl]-amide] registered a Ki below 100 nM. The result for `CCN(CC)CCCS(=O)(=O)N[C@H](COCc1ccccc1)c1nc(-c2ccncc2)no1` [Compound 51, 3-Diethylamino-propane-1-sulfonic acid [(R)-2-benzyloxy-1-(3-pyridin-4-yl-[1,2,4]oxadiazol-5-yl)-ethyl]-amide] reads at least 1000 nM; that for `CCN(CC)CCCS(=O)(=O)N[C@H](CCc1ccccc1)c1nc(-c2ccc3nccn3c2)n[nH]1` [Compound 134, 3-Diethylamino-propane-1-sulfonic acid {(R)-1-[5-(1H-imidazo[1,2,-a]pyridin-6-yl)-2H-[1,2,4]triazol-3-yl]-3-phenyl-propyl}-amide], 100 to 500 nM; that for `CCN(CC)CCCS(=O)(=O)N[C@H](CCc1ccccc1)c1nc(-c2cccc(Br)c2)n[nH]1` [Compound 53, 3-Diethylamino-propane-1-sulfonic acid {(R)-1-[5-(3-bromo-phenyl)-2H-[1,2,4]triazol-3-yl]-3-phenyl-propyl}-amide], below 100 nM.

Take `CCN(CC)CCCS(=O)(=O)N[C@H](CCc1ccccc1)c1nc(Cc2nc(C)cs2)n[nH]1` [Compound 133, 3-Diethylamino-propane-1-sulfonic acid {(R)-1-[5-(4-methyl-3H-1lambda*4*-thiazol-2-ylmethyl)-2H-[1,2,4]triazol-3-yl]-3-phenyl-propyl}-amide]: the inhibition constant (Ki) was below 100 nM. The result for `CCN(CC)CCCS(=O)(=O)N[C@H](COCc1ccccc1)c1nc(-c2ccccc2)no1` [Compound 1, 3-Diethylamino-propane-1-sulfonic acid [(R)-2-benzyloxy-1-(3-phenyl-[1,2,4]oxadiazol-5-yl)-ethyl]-amide] reads 500 to 1000 nM; that for `CCN(CC)CCCS(=O)(=O)N[C@H](CCc1ccccc1)c1nc(-c2ccc(F)cc2)no1` [Compound 66, 3-Diethylamino-propane-1-sulfonic acid {(R)-1-[3-(4-fluoro-phenyl)-[1,2,4]oxadiazol-5-yl]-3-phenyl-propyl}-amide], below 100 nM; that for `CCN(CC)CCCS(=O)(=O)N[C@H](CC(C)C)c1nc(-c2ccc(OC)cc2)n[nH]1` [Compound 160, (R)-3-Diethylamino-propane-1-sulfonic acid {1-[5-(4-methoxy-phenyl)-2H-[1,2,4]triazol-3-yl]-3-methyl-butyl}-amide], 100 to 500 nM.
